These results are taken from patent publication US4260682A, “High sensitivity assays for angiotensin converting enzyme” (priority 1979, dated 1981).

SMILES strings stand for the structures. Peptide text beside a SMILES is read from it. * marks the point of attachment. Bz = O=C(c1ccccc1)*

In assay [1] the test system is ACE. Briefly: pH dependence of ACE activity. Format: biochemical. From the text:
(§1) The enzyme is active over a broad pH range with a maximum around pH 8.0, but is at least about 50% active in the range pH 7.0-pH 8.8, for both HipHisLeu and benzoylPheAlaPro. Although the enzyme is active in a variety of buffer systems known in the art, it is preferred for convenience, when using benzoylPheAlaPro as substrate, to conduct the assays in 0.05 M Hepes buffer, pH 8.0 containing 0.15 M sodium chloride. Detailed protocols for carrying out the assay are given in the examples. […] The preferred concentration range is 1×10^-9 M to 7×10^- 5 M.

A further assay has as its system ACE from rabbit lung. The following applies: sodium chloride removed from reaction medium; cited from earlier work.
The target of the next assay is T1, Guinea pig urinary ACE (Cavia porcellus, UniProt H0UWL7).
T1 sequence (H0UWL7 33-1302): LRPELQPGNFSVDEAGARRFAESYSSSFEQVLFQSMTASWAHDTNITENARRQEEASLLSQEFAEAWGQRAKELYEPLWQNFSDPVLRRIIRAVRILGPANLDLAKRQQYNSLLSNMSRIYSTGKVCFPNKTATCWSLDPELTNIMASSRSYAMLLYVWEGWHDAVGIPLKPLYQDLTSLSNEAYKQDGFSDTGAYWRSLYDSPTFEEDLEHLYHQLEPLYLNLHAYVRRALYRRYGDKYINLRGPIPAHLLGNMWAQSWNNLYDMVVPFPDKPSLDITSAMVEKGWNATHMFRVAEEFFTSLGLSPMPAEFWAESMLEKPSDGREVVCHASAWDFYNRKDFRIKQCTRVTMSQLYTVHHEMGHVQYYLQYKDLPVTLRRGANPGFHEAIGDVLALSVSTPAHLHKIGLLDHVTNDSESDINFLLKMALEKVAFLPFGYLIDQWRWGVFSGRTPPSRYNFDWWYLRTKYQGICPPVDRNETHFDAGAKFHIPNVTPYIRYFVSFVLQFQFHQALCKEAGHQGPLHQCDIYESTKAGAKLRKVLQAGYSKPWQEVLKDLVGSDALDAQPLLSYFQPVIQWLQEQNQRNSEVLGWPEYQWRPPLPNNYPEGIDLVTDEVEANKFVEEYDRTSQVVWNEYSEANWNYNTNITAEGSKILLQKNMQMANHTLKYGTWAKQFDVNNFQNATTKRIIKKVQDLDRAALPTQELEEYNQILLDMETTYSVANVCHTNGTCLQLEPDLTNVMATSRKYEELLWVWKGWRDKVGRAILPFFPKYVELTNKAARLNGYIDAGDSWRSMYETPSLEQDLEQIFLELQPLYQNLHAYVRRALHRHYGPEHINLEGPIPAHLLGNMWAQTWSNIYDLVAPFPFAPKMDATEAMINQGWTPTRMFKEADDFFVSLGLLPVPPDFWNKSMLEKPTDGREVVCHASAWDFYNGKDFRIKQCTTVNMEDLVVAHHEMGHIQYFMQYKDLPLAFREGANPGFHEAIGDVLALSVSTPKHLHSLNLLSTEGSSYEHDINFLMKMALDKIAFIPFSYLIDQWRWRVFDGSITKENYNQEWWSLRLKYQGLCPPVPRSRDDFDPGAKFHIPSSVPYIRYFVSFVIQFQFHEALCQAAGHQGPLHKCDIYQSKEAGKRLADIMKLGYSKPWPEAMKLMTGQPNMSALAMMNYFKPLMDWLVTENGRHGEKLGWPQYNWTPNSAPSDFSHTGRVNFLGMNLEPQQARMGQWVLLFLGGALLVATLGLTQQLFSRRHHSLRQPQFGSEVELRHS
Kind of assay: Sulfate and chloride effects on ACE catalysed substrate hydrolysis. In kind it is biochemical. The following applies: 0.05M Hepes.

The subject of assay [2] is ACE. Briefly: Sulfate and chloride effects on ACE catalysed hydrolysis (general description). The conditions noted are these: sulfate present. Format: biochemical.
Excerpt: An assay for ACE, using HipHisLeu as substrate, is herewith described. The assay is more sensitive than any heretofore disclosed using HipHisLeu as substrate. Maximum sensitivity is achieved by the inclusion of sulfate ions, preferably as sodium sulfate, in the reaction mixture. When 0.1 M NaCl is present in the reaction mixture, sulfate ions are stimulatory from 0.1 M to at least 1.1 M. Maximum stimulation occurs in the range from 0.75 M to 1.1 M Na2 SO4.
An even more sensitive assay for ACE activity has been developed using the novel compound ^3 H-benzoylPheAlaPro as substrate. This new substrate can be used to assay ACE in human urine in incubations as short as 15 minutes. The response of this substrate to ions is strikingly different from the response of HipHisLeu. […] This difficulty has been solved by the proper choice of extracting solvent. While a variety of organic solvents may be suitable for the extraction step, it is preferred to employ toluene. Approximately 88% of ^3 H-benzoylPhe enters the toluene phase while only 6% of the unhydrolyzed substrate enters the toluene phase, when toluene and the acidified reaction mixture are in approximately equal volumes at room temperatures.
as §1

For the compound `CC(C)C[C@H](NC(=O)[C@H](Cc1c[nH]cn1)NC(=O)CNC(=O)c1ccccc1)C(=O)O` [HipHisLeu] (Bz-Gly-His-Leu-OH), the “pH of maximum activity” value with ACE [1] was approximately 8.0 pH. Besides, in the assay with ACE [1] (range pH 7.0-pH 8.8), the “activity of enzyme (relative to maximum)” value is reported as “at least 50%”. For the same compound, in the assay with ACE from rabbit lung, the “inhibition on removal of sodium chloride” value is listed as 92%. The “Reaction Velocity, Per Cent of Substrate Hydrolyzed in 10 minutes” value (“Reaction Velocity, Per Cent” below) at Guinea pig urinary ACE (pH 8.0, 0.0M NaCl, Na2 SO4 0 M) is 0 Per Cent; at Guinea pig urinary ACE (pH 8.0, 0.0M NaCl, Na2 SO4 0.1 M), 0 Per Cent; at Guinea pig urinary ACE (pH 8.0, 0.0M NaCl, Na2 SO4 0.2 M), 0 Per Cent; at Guinea pig urinary ACE (pH 8.0, 0.0M NaCl, Na2 SO4 0.3 M), 0 Per Cent; at Guinea pig urinary ACE (pH 8.0, 0.0M NaCl, Na2 SO4 0.4 M), 0.1 Per Cent; at Guinea pig urinary ACE (pH 8.0, 0.0M NaCl, Na2 SO4 0.5 M), 0.1 Per Cent. The “Reaction Velocity, Per Cent” value is reported as 0.25 Per Cent on Guinea pig urinary ACE (pH 8.0, 0.0M NaCl, Na2 SO4 0.6 M); 0.25 Per Cent at Guinea pig urinary ACE (pH 8.0, 0.0M NaCl, Na2 SO4 0.7 M); 0.25 Per Cent on Guinea pig urinary ACE (pH 8.0, 0.0M NaCl, Na2 SO4 0.75 M); 0.25 Per Cent on Guinea pig urinary ACE (pH 8.0, 0.0M NaCl, Na2 SO4 0.8 M); 0.7 Per Cent at Guinea pig urinary ACE (pH 8.0, 0.0M NaCl, Na2 SO4 0.9 M); 3.9 Per Cent at Guinea pig urinary ACE (pH 8.0, 0.0M NaCl, Na2 SO4 1.2 M). The “Reaction Velocity, Per Cent” value came out at 0.3 Per Cent at Guinea pig urinary ACE (pH 8.0, 0.1M NaCl, Na2 SO4 0 M); 4.1 Per Cent at Guinea pig urinary ACE (pH 8.0, 0.1M NaCl, Na2 SO4 0.4 M); 8.3 Per Cent on Guinea pig urinary ACE (pH 8.0, 0.1M NaCl, Na2 SO4 0.6 M); 12.05 Per Cent at Guinea pig urinary ACE (pH 8.0, 0.1M NaCl, Na2 SO4 0.75 M); 12.25 Per Cent on Guinea pig urinary ACE (pH 8.0, 0.1M NaCl, Na2 SO4 0.9 M). In addition, the “dependence of hydrolysis on added chloride” value in the assay with ACE [2] is listed as “can be carried out in the absence of added chloride, if sulfate is present”.
